# Reference: patent US8309522B2, “Neuromedin and FN-38 peptides for treating psychiatric diseases” (Amylin Pharmaceuticals, LLC, priority 2007, dated 2012)
# Ends that are not written are not given here.
# How the values were obtained:
# rats = conditions: central administration to rats; cited from earlier work
# mice [1] = assay: Prepulse inhibition (PPI) test; format: in vivo; conditions: 78 and 82 dB prepulse, FIG. 4
# Description: (§1) Animal behavior assays were performed to test for anxiolytic and antipsychotic effects of FN-38 (SEQ ID NO:5) administration. […] These specific behavioral tests are known to be sensitive to anxiolytic or antipsychotic drugs. For these assays, FN-38 was administered to mice at doses ranging from 0.1 to 10 mg/kg, intraperitoneally, and their performance in the assay was assessed.
# The prepulse inhibition (PPI) test measures the reflex response to externally applied auditory stimulation (acoustic startle response) and is related to the deficiency in sensory-motor gating capacity seen in schizophrenia. The acoustic startle reflex is a very basic response to strong exteroceptive stimuli and is widely used to assess sensorimotor reactivity in animals and humans. A weak auditory stimulus (prepulse, 74-82 dB) given prior to the strong acoustic stimulus (120 dB) blunts the startle response. This blunting of the startle response is referred to as prepulse inhibition. See, for example, Conti et al., 2005, Behavioral Neuroscience 119:1052-1060. […]
# Mice were injected with the test agent (FN-38 (SEQ ID NO:5) at 0.1, 1.0 or 10 mg/kg, or vehicle (water)) […] to the test or with haloperidol at 1 mg/kg or vehicle (10% DMSO) 30 minutes prior to the test. […] The amount of the animal's “reaction” to the strong stimulus was recorded. […]
# mice [2] = assay: Stress-induced hyperthermia (SIH) assay; format: in vivo; conditions: 60 minutes before the assay, FIG. 1
# Description: as §1
# Body temperature and emotionality are correlated in humans and stress commonly induces an increase in body temperature (hyperthermic response) in rodents. The thermic response to stress is commonly used as an indication of enhanced emotionality or anxiety in rodents and stress-induced hyperthermia (SIH) in mice is considered to have predictive validity for certain human anxiety/stress disorders. The SIH assay assesses the effect of anxiolytics or test agents on SIH and measures the intrinsic effects of these drugs on core body temperature of the animal. See, for example, Zethof et al., 1994, Physiol. Behav. 55:109-115. Anxiolytics blunt the increase in body temperature, or hyperthermic response, following stress exposure. Buspirone is a partial 5-HT1A agonist and a known anxiolytic agent. […] The stress from the first measurement induces hyperthermia which was measured by the second temperature measurement. […]
# mice [3] = assay: Marble burying; format: in vivo; conditions: FN-38 10 mg/kg intraperitoneally, 15-30 minutes prior to the test; statistically significant; FIG. 2
# Description: as §1
# Marble burying is used as a model for both anxiety and obsessive-compulsive disorder. See, for example, Chaki et al., 2003, J. Pharmacol. Exp. Ther. 304:818-826. Anxiolytics suppress marble burying activity. Benzodiazepine chlordiazepoxide (CDP) is a known anxiolytic agent. Mice were injected with the test agent (FN-38 (SEQ ID NO:5) at 0.1, 1.0 or 10 mg/kg, 15 mg/kg CDP, or vehicle (water)) 15-30 minutes prior to the test. Mice were then placed individually in clean cages containing 5-cm of hard wood bedding and 20 marbles spaced evenly in rows of five. The number of marbles buried in 30 minutes was recorded. Results of this assay are shown in FIG. 2 where * is P<0.05 vs. vehicle control. […] These reductions in marble burying were statistically significant.
# mice [4] = assay: Phencyclidine (PCP)-induced locomotion test; format: in vivo; conditions: FN-38 10 mg/kg, 15-30 minutes prior to 5 mg/kg PCP; activity recorded for 60 minutes; FIG. 3
# Description: as §1
# The PCP-induced locomotion test is used with open field activity chambers and measures locomotion, rearing, and stereotypic activity under amphetamine/PCP-induced conditions. The test has predictive validity for some antipsychotic drugs that normalize the hyperactivity and stereotypic behavior seen with amphetamine and PCP. See, for example, Williams et al., 2006, Prog. Neuropsychopharmacol. Biol. Psychiatry, 30:239-243. Mice were injected with the test agent (FN-38 (SEQ ID NO:5) at 0.1, 1.0 or 10 mg/kg, or vehicle (water)) 15-30 minutes prior injection with 5 mg/kg PCP. The animals were then placed in the center of an open field and activity was recorded for 60 minutes.
compound,measurement,setting,value
"neuromedin U (YKVNEYQGPVAPSGGFFLFRPRN-NH2; UniProt P12760 144-166, looked up) [NMU, neuromedin U, centrally administered to rats in cited literature]",food intake,rats,inhibited food intake
"O=C(CCCN1CCC(O)(c2ccc(Cl)cc2)CC1)c1ccc(F)cc1 [halperidol, haloperidol, reference compound]",percent of prepulse inhibition,"mice [1]; haloperidol at 1 mg/kg, 30 minutes prior to the test, positive control",increased the percent of prepulse inhibition
"O=C1CC2(CCCC2)CC(=O)N1CCCCN1CCN(c2ncccn2)CC1 [buspirone, reference compound]",stress-induced hyperthermia (Delta Temperature),"mice [2]; 15 mg/kg buspirone, positive control",blunted the SIH response
FLFHYSKTQKLGKSNVVEELQSPFASQSRGYFLFRPRN (FLFHYSKTQKLGKSNVVEELQSPFASQSRGYFLFRPRN-NH2; listed as Homo sapiens) [FN-38],stress-induced hyperthermia (Delta Temperature),"mice [2]; FN-38 10 mg/kg intraperitoneally, P<0.05 vs. vehicle control",blunted the SIH response
same,number of marbles buried in 30 minutes,mice [3],reduced the number of marbles buried
same,"PCP-induced hyper-locomotion (total distance traveled: total, central, and peripheral)",mice [4],significantly reduced this hyper-locomotion response
same,percent of prepulse inhibition,"mice [1]; FN-38 10 mg/kg, 120 dB stimulus",increased the percent of prepulse inhibition
